Converted amounts (≈) assume the structure as drawn. Peptide text beside a SMILES is read from it. * marks the point of attachment. Acm = CC(=O)NC*
Experiments:
E. coli ATCC 25922 = format: cell-based, Escherichia coli; conditions: ATCC 25922, 24 h
Method: (§1) Escherichia coli (ATCC 25922), E. coli HB101, Pseudomonas aeruginosa (ATCC 27853), Staphylococcus aureus (ATCC 9144) and Corynebacterium glutamicum (ATCC 13032) were grown at 37°C in Mueller Hinton agar (MH; Difco Laboratories, Detroit, USA). The yeasts Candida albicans (ATCC 10231) and Saccharomyces cerevisiae spp and the mold Botrytis cinerea 101 [33] were cultivated on potato dextrose agar supplemented with 2% glucose at room temperature (RT).
(§2) Determination of the MIC against bacteria was performed by continuous monitoring of bacterial growth using a Bioscreen C microbiology reader (Labsystems Oy, Helsinki, Finland). The synthetic peptides were tested for antibacterial and antifungal activity at final concentrations (prepared from serial two-fold dilutions) ranging from 0.2 µM to 100 µM. The test was performed in 100-well flat-bottomed honeycomb plates, in which 50 µl peptide solution was incubated with 50 µl of a suspension of an actively growing culture of bacteria diluted to a starting concentration of 2.5×10^5 CFU/ml in Mueller Hinton Broth (MHB). The growth chamber was maintained at 37°C during the incubation period. The absorbance was measured by a turbidometric method with vertical light photometry and a wide band filter (420–580 nm). MIC was defined as the lowest concentration resulting in no visible bacterial growth after 24 h.

B. cinerea 101 = format: cell-based, Botrytis cinerea; conditions: for IC50: 101, 48 h; for IC50 B. cinerea 101: lowest concentration tested giving less than 50% visible growth vs growth control, potato dextrose medium, 20°C, 48 h, three individual experiments
Method: as §1
(§3) Fungal spores were dissolved in potato dextrose broth (Difco, Lawrence, KS, USA) and the cell concentration was determined and adjusted after counting in a Bürker chamber. Botrytis cinerea was filtered through a piece of cotton before counting. An aliquot of 50 µl of fungal spores (final concentration 2×10^5 spores/ml) were inoculated in 96-well Nunclon™ microtitre plates (Nagle Nunc Int. Roskilde, Denmark) along with 50 µl of synthetic peptide dissolved in Milli-Q water. Cultures were grown in a dark moist chamber without shaking at 20°C for S. cerevisiae and B. cinerea, and at 37°C for C. albicans. Growth inhibition was determined microscopically after 48 h of incubation. Inhibitory concentrations (IC50) was defined as the lowest concentration tested which yielded less than 50% visible growth compared to the growth control (fungi). Each peptide was tested in parallels in three individual runs for the antimicrobial assays.

C. albicans ATCC 10231 = format: cell-based, Candida albicans; conditions: for IC50: ATCC 10231, 48 h; for IC50 C. albicans ATCC 10231: lowest concentration tested giving less than 50% visible growth vs growth control, potato dextrose medium, 37°C, 48 h, three individual experiments
Method: as §1, §3

C. glutamicum ATCC 13032 = format: cell-based, Corynebacterium glutamicum; conditions: ATCC 13032, 24 h
Method: as §1, §2

P. aeruginosa ATCC 27853 = format: cell-based, Pseudomonas aeruginosa; conditions: ATCC 27853, 24 h
Method: as §1, §2

S. cerevisiae spp. = format: cell-based, Saccharomyces cerevisiae; conditions: 48 h
Method: as §1, §3

S. aureus ATCC 9144 = format: cell-based, Staphylococcus aureus; conditions: ATCC 9144, 24 h
Method: as §1, §2

E. coli HB101 = experiment: Antibacterial MIC assay (Bioscreen C growth monitoring); format: cell-based, Escherichia coli; conditions: lowest concentration with no visible bacterial growth after 24 h; 37°C, 50% MH, 2.5×10^5 cells/mL; representative of three individual experiments
Method: as §1, §2

| SMILES | MIC E. coli ATCC 25922 (E. coli ATCC 25922) [µM] | IC50 (B. cinerea 101) [µM] | IC50 (C. albicans ATCC 10231) [µM] | MIC C. glutamicum ATCC 13032 (C. glutamicum ATCC 13032) [µM] | MIC P. aeruginosa ATCC 27853 (P. aeruginosa ATCC 27853) [µM] | IC50 (S. cerevisiae spp.) [µM] | MIC S. aureus ATCC 9144 (S. aureus ATCC 9144) [µM] | IC50 C. albicans ATCC 10231 (C. albicans ATCC 10231) [µM] | MIC E. coli HB101 (E. coli HB101) [µM] | IC50 B. cinerea 101 (B. cinerea 101) [µM] |
| --- | --- | --- | --- | --- | --- | --- | --- | --- | --- | --- |
| N=C(N)NCCC[C@H](NC(=O)[C@@H](N)CO)C(=O)N[C@@H](Cc1c[nH]c2ccccc12)C(=O)N1CCC[C@H]1C(=O)N[C@@H](CO)C(=O)N1CCC[C@H]1C(=O)NCC(=O)N[C@@H](CCCNC(=N)N)C(=O)N1CCC[C@H]1C(=O)N[C@@H](CCCNC(=N)N)C(=O)N1CCC[C@H]1C(=O)N[C@@H](Cc1ccccc1)C(=O)N1CCC[C@H]1C(=O)NCC(=O)O [Arasin 1(1–14)] (H-SRWPSPGRPRPFPG-OH; N-terminus and C-terminus assumed) | >100 | > 100 | > 100 | >100 | >100 | > 100 | >100 | – | – | – |
| CC[C@H](C)[C@H](NC(=O)[C@@H]1CCCN1C(=O)[C@H](CCCCN)NC(=O)[C@@H]1CCCN1C(=O)[C@H](CCCNC(=N)N)NC(=O)CNC(=O)[C@@H]1CCCN1C(=O)[C@H](Cc1ccccc1)NC(=O)[C@@H]1CCCN1C(=O)[C@H](CCCNC(=N)N)NC(=O)[C@@H]1CCCN1C(=O)[C@H](CCCNC(=N)N)NC(=O)CNC(=O)[C@@H]1CCCN1C(=O)[C@H](CO)NC(=O)[C@@H]1CCCN1C(=O)[C@H](Cc1c[nH]c2ccccc12)NC(=O)[C@H](CCCNC(=N)N)NC(=O)[C@@H](N)CO)C(=O)N[C@@H](Cc1ccccc1)C(=O)O [Arasin 1(1–20)] (H-SRWPSPGRPRPFPGRPKPIF-OH; N-terminus and C-terminus assumed) | >100 | 25 to 50 | – | 12.5 to 25 | >100 | 25 | >100 | 50 | – | – |
| CC[C@H](C)[C@H](NC(=O)[C@@H]1CCCN1C(=O)[C@H](CCCCN)NC(=O)[C@@H]1CCCN1C(=O)[C@H](CCCNC(=N)N)NC(=O)CNC(=O)[C@@H]1CCCN1C(=O)[C@H](Cc1ccccc1)NC(=O)[C@@H]1CCCN1C(=O)[C@H](CCCNC(=N)N)NC(=O)[C@@H]1CCCN1C(=O)[C@H](CCCNC(=N)N)NC(=O)CNC(=O)[C@@H]1CCCN1C(=O)[C@H](CO)NC(=O)[C@@H]1CCCN1C(=O)[C@@H](N)Cc1c[nH]c2ccccc12)C(=O)N[C@@H](Cc1ccccc1)C(=O)N[C@@H](CCCNC(=N)N)C(=O)N1CCC[C@H]1C(=O)N[C@@H](CCCNC(=N)N)C(N)=O [Arasin 1(3–23)] (H-WPSPGRPRPFPGRPKPIFRPR-NH2; N-terminus assumed) | 25 to 50 | 25 | 25 | 3.1 (≈ 7.74 µg/mL) | 100 (≈ 250 µg/mL) | 12.5 | >100 | – | 12.5 (≈ 31.2 µg/mL) | – |
| CC[C@H](C)[C@H](NC(=O)[C@@H]1CCCN1C(=O)[C@H](CCCCN)NC(=O)[C@@H]1CCCN1C(=O)[C@H](CCCNC(=N)N)NC(=O)CNC(=O)[C@@H]1CCCN1C(=O)[C@H](Cc1ccccc1)NC(=O)[C@@H]1CCCN1C(=O)[C@H](CCCNC(=N)N)NC(=O)[C@@H]1CCCN1C(=O)[C@H](CCCNC(=N)N)NC(=O)CNC(=O)[C@@H]1CCCN1C(=O)[C@@H](N)CO)C(=O)N[C@@H](Cc1ccccc1)C(=O)N[C@@H](CCCNC(=N)N)C(=O)N1CCC[C@H]1C(=O)N[C@@H](CCCNC(=N)N)C(N)=O [Arasin 1(5–23)] (H-SPGRPRPFPGRPKPIFRPR-NH2; N-terminus assumed) | >100 | 25 | 25 | 6.3 (≈ 14 µg/mL) | >100 | 12.5 | >100 | – | 100 (≈ 221 µg/mL) | – |
| CC[C@H](C)[C@H](NC(=O)[C@@H]1CCCN1C(=O)[C@H](CCCCN)NC(=O)[C@@H]1CCCN1C(=O)[C@H](CCCNC(=N)N)NC(=O)CNC(=O)[C@@H]1CCCN1C(=O)[C@H](Cc1ccccc1)NC(=O)[C@@H]1CCCN1C(=O)[C@H](CCCNC(=N)N)NC(=O)[C@@H]1CCCN1C(=O)[C@H](CCCNC(=N)N)NC(=O)CN)C(=O)N[C@@H](Cc1ccccc1)C(=O)N[C@@H](CCCNC(=N)N)C(=O)N1CCC[C@H]1C(=O)N[C@@H](CCCNC(=N)N)C(N)=O [Arasin 1(7–23)] (H-GRPRPFPGRPKPIFRPR-NH2; N-terminus assumed) | 50 to 100 | – | 25 | 3.1 (≈ 6.29 µg/mL) | 50 to 100 | 12.5 | >100 | – | 25 (≈ 50.8 µg/mL) | 50 |
| CC[C@H](C)[C@H](NC(=O)[C@@H]1CCCN1C(=O)[C@H](CCCCN)NC(=O)[C@@H]1CCCN1C(=O)[C@H](CCCNC(=N)N)NC(=O)CNC(=O)[C@@H]1CCCN1C(=O)[C@H](Cc1ccccc1)NC(=O)[C@@H]1CCCN1C(=O)[C@H](CCCNC(=N)N)NC(=O)[C@@H]1CCCN1)C(=O)N[C@@H](Cc1ccccc1)C(=O)N[C@@H](CCCNC(=N)N)C(=O)N1CCC[C@H]1C(=O)N[C@@H](CCCNC(=N)N)C(N)=O [Arasin 1(9–23)] (H-PRPFPGRPKPIFRPR-NH2; N-terminus assumed) | >100 | – | – | 12.5 (≈ 22.7 µg/mL) | >100 | 25 | >100 | 50 | 100 (≈ 182 µg/mL) | 50 |
| CC[C@H](C)[C@H](NC(=O)[C@@H]1CCCN1C(=O)[C@H](CCCCN)NC(=O)[C@@H]1CCCN1C(=O)[C@H](CCCNC(=N)N)NC(=O)CNC(=O)[C@@H]1CCCN1C(=O)[C@H](Cc1ccccc1)NC(=O)[C@@H]1CCCN1C(=O)[C@H](CCCNC(=N)N)NC(=O)[C@@H]1CCCN1C(=O)[C@H](CCCNC(=N)N)NC(=O)CNC(=O)[C@@H]1CCCN1C(=O)[C@H](CO)NC(=O)[C@@H]1CCCN1C(=O)[C@H](Cc1c[nH]c2ccccc12)NC(=O)[C@H](CCCNC(=N)N)NC(=O)[C@@H](N)CO)C(=O)N[C@@H](Cc1ccccc1)C(=O)N[C@@H](CCCNC(=N)N)C(=O)N1CCC[C@H]1C(=O)N[C@@H](CCCNC(=N)N)C(=O)N1CCC[C@H]1C(=O)N[C@@H](CSCNC(C)=O)C(=O)N[C@@H](CC(N)=O)C(=O)N[C@@H](CSCNC(C)=O)C(=O)N[C@@H](Cc1ccc(O)cc1)C(=O)N[C@@H](C)C(=O)N1CCC[C@H]1C(=O)N1CCC[C@H]1C(=O)N[C@@H](CSCNC(C)=O)C(=O)N1CCC[C@H]1C(=O)N[C@@H](CSCNC(C)=O)C(=O)N[C@@H](CC(=O)O)C(=O)N[C@@H](CCCNC(=N)N)C(=O)N[C@@H](Cc1c[nH]c2ccccc12)C(=O)O [Arasin 1-Acm] (H-SRWPSPGRPRPFPGRPKPIFRPRPC(Acm)NC(Acm)YAPPC(Acm)PC(Acm)DRW-OH; N-terminus and C-terminus assumed) | 25 to 50 | 12.5 to 50 | 25 | 0.8 (≈ 3.71 µg/mL) | 100 (≈ 463 µg/mL) | 12.5 | >100 | – | – | – |
